One molecule from paper PMC4055459, “Imatinib Treatment Causes Substantial Transcriptional Changes in Adult Schistosoma mansoni In Vitro Exhibiting Pleiotropic Effects” (PLoS Neglected Tropical Diseases, 2014) can be followed below.

The target in this assay is T1, SmAbl2-TK (SmAbl2) (Schistosoma mansoni, UniProt D1H0Y8).
T1 construct: gene abl2; capped cRNA injected into Xenopus laevis stage VI oocytes
T1 sequence (D1H0Y8 283-538 limits assumed): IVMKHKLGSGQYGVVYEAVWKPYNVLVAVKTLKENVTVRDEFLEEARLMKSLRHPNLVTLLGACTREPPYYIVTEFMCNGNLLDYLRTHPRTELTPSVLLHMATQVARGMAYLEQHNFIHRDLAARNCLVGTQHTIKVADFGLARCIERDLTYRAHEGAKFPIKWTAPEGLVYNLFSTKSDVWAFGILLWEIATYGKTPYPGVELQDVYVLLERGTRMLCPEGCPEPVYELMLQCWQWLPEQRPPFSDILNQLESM
The experiment in a line: germinal vesicle breakdown (GVBD) assay, cRNA-injected Xenopus oocytes. It is filed as cell-based. The conditions noted are these: remaining GVBD-inducing activity; ND96, 19 °C, 18 h after injection, pools of 10 oocytes.

Structures are written as SMILES.

As to `CO[C@H]1[C@@H](OC)C[C@H](C)[C@@H](OC)C2=CC(=O)C=C(NC(=O)/C(C)=C/C=C\[C@H](OC)[C@@H](OC(N)=O)/C(C)=C/[C@@H]1C)C2=O` [Herbimycin A], the “% GVBD at 10 μM” value came out at 90%.
